Values belong to the compound of their own block, whether it stands above or below them.
Key:
[1] = target: T1, Advanced glycosylation end product-specific receptor (Homo sapiens, UniProt Q15109); experiment: Inhibition of HMGB1 binding to human RAGE domain V expressed in CHO cells; assay type: cell-based
[2] = target: T1, Advanced glycosylation end product-specific receptor; experiment: Displacement of [I125]amyloid beta (1 to 40) from human RAGE domain V expressed in CHO cells; assay type: cell-based
[3] = target: T1, Advanced glycosylation end product-specific receptor; experiment: Inhibition of […] binding to human RAGE domain V expressed in CHO cells; assay type: cell-based
[4] = target: T1, Advanced glycosylation end product-specific receptor; experiment: Binding affinity to human His-tagged RAGE domain VC1 expressed in Escherichia coli by fluorescence titration method
[5] = target: Advanced glycosylation end product-specific receptor (Rattus norvegicus, UniProt Q63495); experiment: Binding affinity to Wistar rat His-tagged RAGE domain VC1 expressed in Escherichia coli by fluorescence titration method
Sequence of Advanced glycosylation end product-specific receptor (Rattus norvegicus, UniProt Q63495) (Q63495 whole entry, the tested form may be a part): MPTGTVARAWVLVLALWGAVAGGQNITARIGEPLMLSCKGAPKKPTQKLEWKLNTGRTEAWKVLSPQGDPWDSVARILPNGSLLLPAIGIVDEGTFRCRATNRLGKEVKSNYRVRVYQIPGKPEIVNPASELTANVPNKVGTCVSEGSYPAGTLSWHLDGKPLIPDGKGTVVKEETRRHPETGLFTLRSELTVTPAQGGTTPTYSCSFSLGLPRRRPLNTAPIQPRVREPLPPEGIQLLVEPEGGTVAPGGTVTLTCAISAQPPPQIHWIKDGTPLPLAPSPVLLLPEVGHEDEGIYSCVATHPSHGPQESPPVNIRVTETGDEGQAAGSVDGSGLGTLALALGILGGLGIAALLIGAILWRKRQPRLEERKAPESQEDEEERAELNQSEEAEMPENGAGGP

[6] = target: T1, Advanced glycosylation end product-specific receptor; experiment: Binding affinity to human RAGE cytoplasmic domain by tryptophan fluorescence assay
[7] = target: T1, Advanced glycosylation end product-specific receptor; experiment: Inhibition of amyloid beta binding to human RAGE […] expressed in HEK293 cells after 10 mins by MST assay; assay type: cell-based
[8] = target: T1, Advanced glycosylation end product-specific receptor; experiment: Inhibition of […] binding to RAGE (unknown origin) by ELISA
[9] = target: T1, Advanced glycosylation end product-specific receptor; experiment: Inhibition of CML binding to RAGE (unknown origin) by ELISA
[10] = target: T1, Advanced glycosylation end product-specific receptor; experiment: Inhibition of amyloid beta binding to RAGE (unknown origin) by ELISA
[11] = Cytotoxicity against mouse HT22 cells assessed as cell survival at 10 uM after 18 hrs by MTT assay relative to control; assay type: cell-based, HT-22; conditions: read-out: Survival
[12] = target: T1, Advanced glycosylation end product-specific receptor; experiment: Inhibition of amyloid beta binding to biotin-labeled human RAGE domain V at 20 uM after 60 mins by ELISA relative to cotrol
[13] = target: T1, Advanced glycosylation end product-specific receptor; experiment: Binding affinity to human C-terminal His-tagged RAGE domain V (24 to 125 residues) expressed in Escherichia coli BL21(DE3) by tryptophan fluorescence assay

T1 sequence (Q15109 whole entry, the tested form may be a part): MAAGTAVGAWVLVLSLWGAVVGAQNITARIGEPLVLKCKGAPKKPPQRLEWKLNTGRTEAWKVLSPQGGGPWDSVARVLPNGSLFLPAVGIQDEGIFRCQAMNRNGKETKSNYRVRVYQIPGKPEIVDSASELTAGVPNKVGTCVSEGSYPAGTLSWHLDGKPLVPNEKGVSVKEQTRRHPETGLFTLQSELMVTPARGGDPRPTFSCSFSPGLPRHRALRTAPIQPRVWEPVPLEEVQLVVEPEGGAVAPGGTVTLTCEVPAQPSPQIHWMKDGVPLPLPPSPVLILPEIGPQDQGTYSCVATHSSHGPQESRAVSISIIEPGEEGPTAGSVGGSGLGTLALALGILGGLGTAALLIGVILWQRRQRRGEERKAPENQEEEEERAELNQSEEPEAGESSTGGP

Compound: O=C(O)c1cccnc1C(=O)O [QUINOLINIC ACID]
Kd [4]: 0.043 µM
Kd [5]: 0.043 µM

Compound: O=C1CCC[C@@H]2[C@H]3CCCN4CCC[C@@H](CN12)[C@@H]34 [MATRINE]
Kd [7]: 24000 µM

Compound: CCCCOc1cc(OCCCN(CC)CC)ccc1NC(=O)c1cc(-c2ccc(Oc3ccc(F)cc3)cc2)nn1C
viability at 18 h, 10 µM [11]: 10.3%

Compound: CCN(CC)CCOc1ccc(OC)cc1NC(=O)c1nc(-c2ccc(F)cc2)cc(-c2ccc(F)cc2)n1
viability at 18 h, 10 µM [11]: 100%
inhibition [12]: > 4%

Compound: CCN(CC)CCOc1cccc(Nc2nc(-c3ccc(Cl)cc3)cc(-c3ccc(Cl)cc3)n2)c1
viability at 18 h, 10 µM [11]: 37.3%

More lines, now with the values ahead:

Ki [1]: 0.148 µM
Ki [2]: 0.025 µM
Ki [3]: 0.23 µM
Compound: O=C(c1ccc(Cl)cc1)N(Cc1ccccc1)C1CCCCC1

Kd [6]: 0.032 µM
Compound: Cc1c(Cl)cccc1NC(=O)CNC(=O)c1ccccc1F

Kd [6]: 0.001 µM
Compound: Cc1nc2ccccc2n1CC(O)Cn1c2ccccc2c2ccccc21 (stereo unspecified)

IC50 [8]: < 0.5 µM
IC50 [9]: < 4 µM
IC50 [10]: < 0.5 µM
Compound: CCCCn1c([C@@H](Cc2ccc(OCCc3ccc(Cl)cc3)cc2)NC(=O)OC(C)(C)C)nc2cc(OCCCN(CC)CC)ccc21

Kd [6]: 0.002 µM
Compound: COC(=O)c1cc(O)c(O)cc1NC(=O)C1Oc2ccccc2OC1C (stereo unspecified)

IC50 [8]: < 0.5 µM
IC50 [9]: < 0.5 µM
IC50 [10]: < 0.5 µM
Compound: CCCCOc1cc(OCCCN(CC)CC)ccc1NC(=O)C(CC1CCN(Cc2ccccc2)CC1)NC(=O)OCC1c2ccccc2-c2ccccc21 (stereo unspecified)

Kd [13]: 0.03 to 0.04 µM
Compound: CC1NC(NCCC[C@H](N)C(=O)O)=NC1=O (stereo partly specified)

Kd [6]: 0.006 µM
Compound: COc1cc(SC)ccc1C(=O)Nc1cccc(C)n1

From ChEMBL document CHEMBL4028844, “Targeting the Receptor for Advanced Glycation Endproducts (RAGE): A Medicinal Chemistry Perspective” (J Med Chem, 2017)
